Common to all, as to type: cell-based
One experiment concerns K. pneumoniae MP-648. Description: Broth dilution MIC determination (CLSI), K. pneumoniae MP-648. The note with it: Klebsiella pneumoniae, MP648; strain MP-648, broth dilution. (In broth dilution the organism is exposed to a series of concentrations in liquid medium.)
For the next experiment, the system named is E. coli MP-4. Description: Broth dilution MIC determination (CLSI), E. coli MP-4. The note with it: Escherichia coli, MP4; strain MP-4, broth dilution; read-out: MIC E. coli MP-4.
Another experiment has as its system P. aeruginosa MP-3. In words: Broth dilution MIC determination (CLSI), P. aeruginosa MP-3. As to conditions: Pseudomonas aeruginosa, MP3; strain MP-3, broth dilution.
A further experiment has as its system A. baumannii MP-15. In words: Broth dilution MIC determination (CLSI), A. baumannii MP-15. As to conditions: Acinetobacter baumannii, MP15; strain MP-15, broth dilution; read-out: MIC A. baumanii MP-15.
In a further experiment the test system is S. aureus MP-12. Description: Broth dilution MIC determination (CLSI), S. aureus MP-12. The note with it: Staphylococcus aureus, MP12; strain MP-12, broth dilution.
In another experiment the test system is K. pneumoniae MP-546. In words: Broth dilution MIC determination (CLSI), K. pneumoniae MP-546. The note with it: Klebsiella pneumoniae, MP546; strain MP-546, broth dilution.

The structures appear in SMILES notation. Values after ≈ are worked out from the molar mass of the structure shown. Bounds are passed on as bounds.

One may read the MIC as the smallest concentration in the dilution series that meets the test's criterion for growth inhibition.

As for `CO[C@]1(C)C[C@@H](C)CN(C)[C@H](C2CN(CC3CC3)C2)COC(=O)C(C)(C)C(=O)[C@H](C)[C@H]1O[C@@H]1O[C@H](C)C[C@H](N(C)C)[C@H]1O` [Compound 37, (3R,6R,8R,9R,10R)-3-(1-(cyclopropylmethyl)azetidin-3-yl)-9-(((2S,3R,4S,6R)-4-(dimethylamino)-3-hydroxy-6-methyltetrahydro-2H-pyran-2-yl)oxy)-8-methoxy-4,6,8,10,12,12-hexamethyl-1-oxa-4-azacyclotridecane-11,13-dione], the MIC in the experiment with K. pneumoniae MP-648 is 4 to 32 µg/mL (≈ 6.56 to 52.5 µM); in the experiment on E. coli MP-4, less than 4 µg/mL; with P. aeruginosa MP-3, more than 32 µg/mL; in the experiment on A. baumannii MP-15, more than 32 µg/mL; in the experiment on S. aureus MP-12, 4 to 32 µg/mL (≈ 6.56 to 52.5 µM); in the experiment with K. pneumoniae MP-546, less than 4 µg/mL.
For `CO[C@]1(C)C[C@@H](C)CN(C)[C@H](C2CN(Cc3ccncc3)C2)COC(=O)C(C)(C)C(=O)[C@H](C)[C@H]1O[C@@H]1O[C@H](C)C[C@H](N(C)C)[C@H]1O` [Compound 176, (3R,6R,8R,9R,10R)-9-(((2S,3R,4S,6R)-4-(dimethylamino)-3-hydroxy-6-methyltetrahydro-2H-pyran-2-yl)oxy)-8-methoxy-4,6,8,10,12,12-hexamethyl-3-(1-(pyridin-4-ylmethyl)azetidin-3-yl)-1-oxa-4-azacyclotridecane-11,13-dione], the MIC was more than 32 µg/mL with K. pneumoniae MP-648; 4 to 32 µg/mL (≈ 6.18 to 49.5 µM) with E. coli MP-4; more than 32 µg/mL in the experiment on P. aeruginosa MP-3; more than 32 µg/mL in the experiment with A. baumannii MP-15; 4 to 32 µg/mL (≈ 6.18 to 49.5 µM) against S. aureus MP-12; 4 to 32 µg/mL (≈ 6.18 to 49.5 µM) against K. pneumoniae MP-546.
For the compound `CO[C@]1(C)C[C@@H](C)CN(C)[C@H](C2CN(C(=O)CC(C)(C)CN(C)C)C2)COC(=O)C(C)(C)C(=O)[C@H](C)[C@H]1O[C@@H]1O[C@H](C)C[C@H](N(C)C)[C@H]1O` [Compound 183, (3R,6R,8R,9R,10R)-3-(1-(4-(dimethylamino)-3,3-dimethylbutanoyl)azetidin-3-yl)-9-(((2S,3R,4S,6R)-4-(dimethylamino)-3-hydroxy-6-methyltetrahydro-2H-pyran-2-yl)oxy)-8-methoxy-4,6,8,10,12,12-hexamethyl-1-oxa-4-azacyclotridecane-11,13-dione], the MIC against K. pneumoniae MP-648 is 4 to 32 µg/mL (≈ 5.74 to 45.9 µM); with E. coli MP-4, less than 4 µg/mL; in the experiment on P. aeruginosa MP-3, more than 32 µg/mL; with A. baumannii MP-15, more than 32 µg/mL; against S. aureus MP-12, 4 to 32 µg/mL (≈ 5.74 to 45.9 µM); with K. pneumoniae MP-546, 4 to 32 µg/mL (≈ 5.74 to 45.9 µM).
For the compound `CCN(C)CC(C)(C)CC(=O)N1CC([C@@H]2COC(=O)C(C)(C)C(=O)[C@H](C)[C@@H](O[C@@H]3O[C@H](C)C[C@H](N(C)C)[C@H]3O)[C@](C)(OC)C[C@@H](C)CN2C)C1` [Compound 122, (3R,6R,8R,9R,10R)-9-(((2S,3R,4S,6R)-4-(dimethylamino)-3-hydroxy-6-methyltetrahydro-2H-pyran-2-yl)oxy)-3-(1-(4-(ethyl(methyl)amino)-3,3-dimethylbutanoyl)azetidin-3-yl)-8-methoxy-4,6,8,10,12,12-hexamethyl-1-oxa-4-azacyclotridecane-11,13-dione], the MIC against K. pneumoniae MP-648 is 4 to 32 µg/mL (≈ 5.63 to 45 µM); with E. coli MP-4, less than 4 µg/mL; in the experiment on P. aeruginosa MP-3 it was more than 32 µg/mL; in the experiment with A. baumannii MP-15, more than 32 µg/mL; in the experiment with S. aureus MP-12 it was 4 to 32 µg/mL (≈ 5.63 to 45 µM); against K. pneumoniae MP-546, 4 to 32 µg/mL (≈ 5.63 to 45 µM).
`CO[C@]1(C)C[C@@H](C)CN(C)[C@H](C2CN(CCC(C)C)C2)COC(=O)C(C)(C)C(=O)[C@H](C)[C@H]1O[C@@H]1O[C@H](C)C[C@H](N(C)C)[C@H]1O` [Compound 51, (3R,6R,8R,9R,10R)-9-(((2S,3R,4S,6R)-4-(dimethylamino)-3-hydroxy-6-methyltetrahydro-2H-pyran-2-yl)oxy)-3-(1-isopentylazetidin-3-yl)-8-methoxy-4,6,8,10,12,12-hexamethyl-1-oxa-4-azacyclotridecane-11,13-dione]: the MIC is 4 to 32 µg/mL (≈ 6.39 to 51.1 µM) in the experiment with K. pneumoniae MP-648; less than 4 µg/mL with E. coli MP-4; more than 32 µg/mL in the experiment on P. aeruginosa MP-3; 4 to 32 µg/mL (≈ 6.39 to 51.1 µM) with A. baumannii MP-15; 4 to 32 µg/mL (≈ 6.39 to 51.1 µM) in the experiment with S. aureus MP-12; less than 4 µg/mL with K. pneumoniae MP-546.
Turning to `CO[C@]1(C)C[C@@H](C)CN(C)[C@@H](C2CCN(C(C)[C@H]3COC(C)(C)O3)CC2)COC(=O)C(C)(C)C(=O)[C@H](C)[C@H]1O[C@@H]1O[C@H](C)C[C@H](N(C)C)[C@H]1O` (mixture of isomers) [Compound 172, (3S,6R,8R,9R,10R)-3-(1-(1-((S)-2,2-dimethyl-1,3-dioxolan-4-yl)ethyl)piperidin-4-yl)-9-(((2S,3R,4S,6R)-4-(dimethylamino)-3-hydroxy-6-methyltetrahydro-2H-pyran-2-yl)oxy)-8-methoxy-4,6,8,10,12,12-hexamethyl-1-oxa-4-azacyclotridecane-11,13-dione], the MIC against K. pneumoniae MP-648 was less than 4 µg/mL; in the experiment on E. coli MP-4 it was less than 4 µg/mL; against P. aeruginosa MP-3, more than 32 µg/mL; in the experiment with A. baumannii MP-15, more than 32 µg/mL; against S. aureus MP-12 it was 4 to 32 µg/mL (≈ 5.62 to 44.9 µM); against K. pneumoniae MP-546, less than 4 µg/mL.
As to `CO[C@]1(C)C[C@@H](C)CN(C)[C@H](C2CN(C(=O)CC(C)(C)CN(C)CC3CC3)C2)COC(=O)C(C)(C)C(=O)[C@H](C)[C@H]1O[C@@H]1O[C@H](C)C[C@H](N(C)C)[C@H]1O` [Compound 25, (3R,6R,8R,9R,10R)-3-(1-(4-((cyclopropylmethyl)(methyl)amino)-3,3-dimethylbutanoyl)azetidin-3-yl)-9-(((2S,3R,4S,6R)-4-(dimethylamino)-3-hydroxy-6-methyltetrahydro-2H-pyran-2-yl)oxy)-8-methoxy-4,6,8,10,12,12-hexamethyl-1-oxa-4-azacyclotridecane-11,13-dione], the MIC with K. pneumoniae MP-648 is 4 to 32 µg/mL (≈ 5.43 to 43.4 µM); in the experiment on E. coli MP-4 it was less than 4 µg/mL; with P. aeruginosa MP-3, more than 32 µg/mL; with A. baumannii MP-15, more than 32 µg/mL; with S. aureus MP-12, 4 to 32 µg/mL (≈ 5.43 to 43.4 µM); in the experiment on K. pneumoniae MP-546, less than 4 µg/mL.
With `CO[C@]1(C)C[C@@H](C)CN(C)[C@H](C2CN(CC3CCCC3)C2)COC(=O)C(C)(C)C(=O)[C@H](C)[C@H]1O[C@@H]1O[C@H](C)C[C@H](N(C)C)[C@H]1O` [Compound 103, (3R,6R,8R,9R,10R)-3-(1-(cyclopentylmethyl)azetidin-3-yl)-9-(((2S,3R,4S,6R)-4-(dimethylamino)-3-hydroxy-6-methyltetrahydro-2H-pyran-2-yl)oxy)-8-methoxy-4,6,8,10,12,12-hexamethyl-1-oxa-4-azacyclotridecane-11,13-dione], the MIC in the experiment with K. pneumoniae MP-648 was 4 to 32 µg/mL (≈ 6.27 to 50.2 µM); in the experiment on E. coli MP-4, less than 4 µg/mL; with P. aeruginosa MP-3, more than 32 µg/mL; in the experiment with A. baumannii MP-15, 4 to 32 µg/mL (≈ 6.27 to 50.2 µM); in the experiment on S. aureus MP-12, 4 to 32 µg/mL (≈ 6.27 to 50.2 µM); against K. pneumoniae MP-546, less than 4 µg/mL.
In the case of `CO[C@]1(C)C[C@@H](C)CN(C)[C@H](C2CN(C(=O)CN(C)C)C2)[C@@H](C)OC(=O)C(C)(C)C(=O)[C@H](C)[C@H]1O[C@@H]1O[C@H](C)C[C@H](N(C)C)[C@H]1O` [Compound 120, (2R,3R,6R,8R,9R,10R)-9-(((2S,3R,4S,6R)-4-(dimethylamino)-3-hydroxy-6-methyltetrahydro-2H-pyran-2-yl)oxy)-3-(1-(dimethylglycyl)azetidin-3-yl)-8-methoxy-2,4,6,8,10,12,12-heptamethyl-1-oxa-4-azacyclotridecane-11,13-dione], the MIC against K. pneumoniae MP-648 is more than 32 µg/mL; in the experiment with E. coli MP-4 it was 4 to 32 µg/mL (≈ 6.11 to 48.9 µM); against P. aeruginosa MP-3, more than 32 µg/mL; in the experiment on A. baumannii MP-15, more than 32 µg/mL; in the experiment on S. aureus MP-12 it was more than 32 µg/mL; with K. pneumoniae MP-546, 4 to 32 µg/mL (≈ 6.11 to 48.9 µM).
As to `CO[C@]1(C)C[C@@H](C)CN(C)[C@H](C2CN(C(=O)CCN(C)CC(C)C)C2)COC(=O)C(C)(C)C(=O)[C@H](C)[C@H]1O[C@@H]1O[C@H](C)C[C@H](N(C)C)[C@H]1O` [Compound 125, (3R,6R,8R,9R,10R)-9-(((2S,3R,4S,6R)-4-(dimethylamino)-3-hydroxy-6-methyltetrahydro-2H-pyran-2-yl)oxy)-3-(1-(3-(isobutyl(methyl)amino)propanoyl)azetidin-3-yl)-8-methoxy-4,6,8,10,12,12-hexamethyl-1-oxa-4-azacyclotridecane-11,13-dione], the MIC in the experiment with K. pneumoniae MP-648 is 4 to 32 µg/mL (≈ 5.74 to 45.9 µM); in the experiment on E. coli MP-4 it was less than 4 µg/mL; against P. aeruginosa MP-3, more than 32 µg/mL; with A. baumannii MP-15, more than 32 µg/mL; with S. aureus MP-12 it was more than 32 µg/mL; in the experiment with K. pneumoniae MP-546, 4 to 32 µg/mL (≈ 5.74 to 45.9 µM).
As to `CO[C@]1(C)C[C@@H](C)CN(C)[C@@H](C2CCN(CC3CCC3)CC2)COC(=O)C(C)(C)C(=O)[C@H](C)[C@H]1O[C@@H]1O[C@H](C)C[C@H](N(C)C)[C@H]1O` [Compound 69, (3S,6R,8R,9R,10R)-3-(1-(cyclobutylmethyl)piperidin-4-yl)-9-(((2S,3R,4S,6R)-4-(dimethylamino)-3-hydroxy-6-methyltetrahydro-2H-pyran-2-yl)oxy)-8-methoxy-4,6,8,10,12,12-hexamethyl-1-oxa-4-azacyclotridecane-11,13-dione], the MIC against K. pneumoniae MP-648 was 4 to 32 µg/mL (≈ 6.14 to 49.1 µM); in the experiment with E. coli MP-4, less than 4 µg/mL; against P. aeruginosa MP-3, more than 32 µg/mL; in the experiment with A. baumannii MP-15, more than 32 µg/mL; with S. aureus MP-12, 4 to 32 µg/mL (≈ 6.14 to 49.1 µM); against K. pneumoniae MP-546 it was less than 4 µg/mL.
For `CCN(C)[C@H]1C[C@H]([C@@H]2COC(=O)C(C)(C)C(=O)[C@H](C)[C@@H](O[C@@H]3O[C@H](C)C[C@H](N(C)C)[C@H]3O)[C@](C)(OC)C[C@@H](C)CN2C)C1` [Compound 71, (3R,6R,8R,9R,10R)-9-(((2S,3R,4S,6R)-4-(dimethylamino)-3-hydroxy-6-methyltetrahydro-2H-pyran-2-yl)oxy)-3-((1r,3R)-3-(ethyl(methyl)amino)cyclobutyl)-8-methoxy-4,6,8,10,12,12-hexamethyl-1-oxa-4-azacyclotridecane-11,13-dione], the MIC against K. pneumoniae MP-648 was less than 4 µg/mL; in the experiment with E. coli MP-4 it was 4 to 32 µg/mL (≈ 6.54 to 52.3 µM); against P. aeruginosa MP-3 it was more than 32 µg/mL; in the experiment on A. baumannii MP-15, more than 32 µg/mL; against S. aureus MP-12, 4 to 32 µg/mL (≈ 6.54 to 52.3 µM); against K. pneumoniae MP-546, less than 4 µg/mL.

Source of the values: patent US20220177508A1, “C10-Cyclic Substituted 13-Membered Macrolides and Uses Thereof” (Zikani Therapeutics, Inc., priority 2018, published 2022).
